Source: patent US5430023A, “Tripeptide antithrombotic agents” (Eli Lilly and Company, priority 1993, dated 1995)
“And” between values parts separate entries of the source, which are not always exact repeats. Equal values may be shown once. Where a name gives a salt, the structure may show the parent alone. Square brackets hold non-standard residues; d marks the D form. Peptide text beside a SMILES is read from it. * marks the point of attachment. dPhg = N[C@@H](C(=O)O)c1ccccc1; Boc = CC(C)(C)OC(=O)*

Tests used:
bovine thrombin [1] = biological target: T1, bovine thrombin (Bos taurus, UniProt P00735); assay: Inhibition of thrombin amidase activity (chromogenic substrate), bovine thrombin; format: biochemical; details: apparent equilibrium constant inhibitor-thrombin, mean over a range of concentrations
T1 construct: 25 μl of bovine thrombin solution (0.21 mg/ml of thrombostat powder); purchased thrombostat powder
Description: The data in the table were obtained in an assay in which thrombin hydrolyzes the chromogenic substrate, N-benzoyl-D-phenylalanyl-L-valyl-L-arginyl-p-nitroanilide.
The assay was carried out in 50 μl buffer (0.03M Tris, 0.15M NaCl, pH 7.4) with 25 μl of bovine thrombin solution (0.21 mg/ml of thrombostat powder in 0.06M Tris, 0.3M NaCl, pH 7.4) and 150 μl of an aqueous solution of the chromogenic substrate at a concentration of 0.25 mg/ml. Solutions of test compound (25 μl) at various concentrations were added. […] Standard curves were constructed by plotting free thrombin concentration against hydrolysis rate. […] The amount of free inhibitor in each assay was calculated by subtracting the number of moles of bound thrombin from the number of moles of added inhibitor (test compound).
(§1) Kass was calculated for a range of concentrations of compounds and the mean value is reported in units of liter per mole.

[2] = tested on: plasma coagulation (thromboplastin); assay: Plasma coagulation assay: prothrombin time; format: biochemical
Description: The numerical values in the table are the concentrations of the test compounds (ng/ml) required to prolong coagulation by 2-fold in the three tests. The thrombin time evaluation was carried out in plasma and separately determined in a buffer system at pH 7.5.
(§2) The data presented in Table 2 were obtained using a CoaScreener instrument from Tecan, Inc. in the assay protocols listed below.
50 μl thromboplastin (Dade)

[3] = tested on: plasma coagulation (Actin, CaCl2); assay: Plasma coagulation assay: APTT (activated partial thromboplastin time); format: biochemical
Description: (§3) The anticoagulant activity of the compounds of the invention has been determined in standard tests. The following Table 2 presents the data obtained with representative compounds of the invention in tests used to determine prothrombin time, thrombin time and activated partial thromboplastin time (APTT). The numerical values in the table are the concentrations of the test compounds (ng/ml) required to prolong coagulation by 2-fold in the three tests. The thrombin time evaluation was carried out in plasma and separately determined in a buffer system at pH 7.5.
as §2

bovine thrombin [4] = biological target: T1, bovine thrombin; assay: Plasma coagulation assay: thrombin time; format: biochemical
Description: as §3, §2
50 μl bovine thrombin (2 NIH

bovine thrombin [5] = biological target: T1, bovine thrombin; assay: Thrombin time in buffer (fibrinogen instead of plasma); format: biochemical; details: Buffer (pH 7.5)
Description: as §3, §2
In the Thrombin Time determined in pH 7.4 buffer fibrinogen was used instead of plasma.

[6] = tested on: arterial thrombosis in the carotid artery; assay: Ferric chloride induced arterial thrombosis in the carotid artery of the rat; format: in vivo; details: infusion from 15 min before to 60 min after FeCl3, NA = Not active at 4 mg/kg/h or at 7 mg/kg/h, the highest doses tested
Description: The antithrombotic activity of representative compounds of the invention was determined in in vivo tests carried out in the rat. The test employed induced arterial thrombosis in the carotid artery of the rat and measured the infusion dose of test compound required to maintain blood flow for fifty minutes past the time of occlusion. The test was performed as follows.
Arterial thrombosis was induced in the rat by injury of the carotid artery. Topical application of a ferric chloride solution was used to injure the vessel. Male Sprague-Dawley rats (375-450 g) were anesthetized with xylazine (20 mg/kg, s.c.) followed by ketamine HCl (100 mg/kg, s.c.). Animals were laid on a water blanket in which the circulated water was maintained at 37° C. The carotid artery was approached through a midline cervical incision. Careful blunt dissection was used to expose and isolate the vessel from the carotid sheath. A silk suture was pulled underneath the artery to lift the vessel to provide clearance to insert a thermocouple underneath it. […] Small forceps were used to dip discs (3 mm dia) of Whatman No. 1 filter paper into a FeCl3 solution (35%). The discs were cut to equal size using sharpened stainless steel tubing (3 mm i.d.) chucked in a drill press. A saturated disc was placed on each carotid artery above the thermocouple. The time between FeCl3 application and the time at which temperature decreased abruptly was recorded as time to occlusion (TTO) of the vessel. The average time required for both vessels to occlude was used to represent TTO for each animal.
Test compounds were dissolved in isotonic saline. […]
The association between vessel occlusion and the abrupt temperature decrease was established by simultaneously recording the temperature and blood flow on the same recorder. […] Baseline temperature and flow velocity (determined with a Directional Pulsed Doppler Flowmeter, Model 545-C, University of Iowa Bioengineering) were recorded before application of 35% ferric chloride. […]

human thrombin = biological target: T2, human thrombin (Homo sapiens, UniProt P00734); assay: Inhibition of thrombin amidase activity (chromogenic substrate), human thrombin; format: biochemical; details: human thrombin (footnote 2)
T2 construct: purchased Inzyme Research Laboratories of South Bend, Ind
Description: The compounds provided by the invention (formula 1) inhibit the action of thrombin in man and animals. […] The following Table 1 lists the apparent equilibrium constant (Kass) for interaction between the test compound (inhibitor) and thrombin. The data in the table were obtained in an assay in which thrombin hydrolyzes the chromogenic substrate, N-benzoyl-D-phenylalanyl-L-valyl-L-arginyl-p-nitroanilide.
The assay was carried out in 50 μl buffer (0.03M Tris, 0.15M NaCl, pH 7.4) with 25 μl of bovine thrombin solution (0.21 mg/ml of thrombostat powder in 0.06M Tris, 0.3M NaCl, pH 7.4) and 150 μl of an aqueous solution of the chromogenic substrate at a concentration of 0.25 mg/ml. Solutions of test compound (25 μl) at various concentrations were added. Rates of hydrolysis of the substrate were measured by monitoring the reactions at 405 nm for the release of p-nitroaniline. […] The bound thrombin (bound to test compound) was calculated by subtracting the amount of free thrombin observed in each assay from the known initial amount of thrombin used in the assay. The amount of free inhibitor in each assay was calculated by subtracting the number of moles of bound thrombin from the number of moles of added inhibitor (test compound). […]
as §1

Row | Compound | Thrombin Amidase Kass × 10^6 (bovine thrombin [1]; diacetate salt) | Prothrombin Time: concentration required to prolong coagulation by 2fold [2] [ng/mL] | APTT: concentration required to prolong coagulation by 2fold [3] [ng/mL] | Thrombin Time: concentration required to prolong coagulation by 2fold (bovine thrombin [4]) [ng/mL] | Thrombin Time: concentration required to prolong coagulation by 2fold (bovine thrombin [5]) [ng/mL] | ED50: infusion dose required to maintain blood flow for 50 min [6] [mg/kg/h] | Thrombin Amidase Kass × 10^6 (human thrombin) | Thrombin Amidase Kass × 10^6 (bovine thrombin [1])
1 | CC(C)(C)OC(=O)N[C@@H](C(=O)N1CCC[C@H]1C(=O)N[C@H](C=O)CCCNC(=N)N)c1ccccc1 [Boc-D-phenylglycyl, N-(t-Butyloxycarbonyl)-D-phenylglycyl-L-Prolyl-L-Arginine aldehyde (Boc-D-Phg-Pro-Arg-H) diacetate salt] (Boc-[dPhg]-Pro-Arg-aldehyde) | 88 × 10^6 1/mole and 73 × 10^6 1/mole | 667 | 1169 | 110 | 118 | 2.9 |  | 
2 | N=C(N)NCCCC(C=O)NC(=O)C1CCCN1C(=O)C1CC2CCCCC2CN1 [D-3-(4aS, 8aS)-Piq-(L)-Pro-(L)-Arg-H] |  |  |  |  |  |  | 56 × 10^6 1/mole | 
3 | CC(C)(C)OC(=O)NC(C(=O)N1CCC[C@H]1C(=O)N[C@H](C=O)CCCNC(=N)N)c1cccc2ccccc12 (mixture of isomers) [Boc-DL-1-naphthylglycyl] |  | 1136 | 2272 | 320 | 112 | 5.5 |  | 18 × 10^6 1/mole
4 | CC(=O)O.CC(=O)O.CC(C)(C)OC(=O)N[C@@H](C(=O)N1CCC[C@H]1C(=O)N[C@H](C=O)CCCNC(=N)N)c1cccc2ccccc12 [Boc-D-1-naphthylglycyl, N-Boc-D-1-naphthylglycyl-Pro-Arg-H diacetate] |  | 1225 | 3100 | 230 | 105 | 6.4 |  | 52 × 10^6 1/mole
5 | D-3 -(4aR, 8aR)-Piq-(L)-Pro-(L)-Arg-H |  |  |  |  |  |  | 214 × 10^6 1/mole | 
